Patent US20230312542A1, “HYDROXYPYRROLIDINE DERIVATIVE AND MEDICINAL APPLICATION THEREOF” (MITSUBISHI TANABE PHARMA CORPORATION, priority 2020, published 2023)

The compounds below were run against VHL (co-expressed with Elongin B and Elongin C) (Homo sapiens (Human), UniProt P40337) (assay: Measurement of intermolecular interactions using surface plasmon resonance (Biacore T200), Kd value for VHL). Conditions: SPR, immobilized VHL, 25° C.; read-out: Kd.
Type: binding
Source text: As the device, Biacore T200 (manufactured by GE Healthcare) was used. VHL was obtained by co-expressing Elongin B and Elongin C with a Twin-Strep-tag added to the N-terminus. As the sensor chip, Sensor chip CM5 (manufactured by GE Healthcare) was used. First, Strep-Tactin XT (manufactured by GE Healthcare) was immobilized on the sensor chip by amine coupling. Thereafter, VHL was immobilized using the affinity of Strep-Tactin XT and Twin-Strep-tag, and VHL was further immobilized on the sensor chip by amine coupling.
As the running buffer, a mixed solution of 20 mM HEPES pH 7.5, 150 mM NaCl, 1 mM TCEP, 0.005% Tween 20, and 2% DMSO was used. […] The Contact time and the Dissociation time were determined according to the properties of the compounds. For many compounds, 60 seconds and 120 seconds were respectively used.

Sequence of VHL (co-expressed with Elongin B and Elongin C) (P40337 whole entry, looked up): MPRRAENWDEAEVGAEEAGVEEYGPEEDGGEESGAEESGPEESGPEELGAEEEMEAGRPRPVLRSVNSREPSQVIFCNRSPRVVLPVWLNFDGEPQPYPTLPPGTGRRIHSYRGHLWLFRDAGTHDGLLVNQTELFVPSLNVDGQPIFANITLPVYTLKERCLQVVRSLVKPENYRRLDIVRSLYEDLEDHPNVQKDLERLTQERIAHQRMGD
Sequence of VHL (co-expressed with Elongin B and Elongin C) (Q15370 whole entry partner, looked up): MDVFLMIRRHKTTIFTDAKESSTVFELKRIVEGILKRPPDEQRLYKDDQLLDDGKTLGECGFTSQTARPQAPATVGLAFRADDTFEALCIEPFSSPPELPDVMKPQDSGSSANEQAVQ
Sequence of VHL (co-expressed with Elongin B and Elongin C) (Q15369 whole entry partner, looked up): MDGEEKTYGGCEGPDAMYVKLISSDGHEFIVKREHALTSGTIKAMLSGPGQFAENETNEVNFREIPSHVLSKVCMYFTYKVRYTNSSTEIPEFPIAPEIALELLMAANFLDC

Kd, 1 to 10 µM:
CC(=O)N[C@H](C(=O)N1C[C@H](O)C[C@H]1c1ncc(Cc2cccc(Br)c2)[nH]1)C(C)(C)C [Example 90, N-[(2S)-1-[(2S,4R)-2-[5-[(3-bromophenyl)methyl]-1H-imidazol-2-yl]-4-hydroxypyrrolidin-1-yl]-3,3-dimethyl-1-oxobutan-2-yl]acetamide]
CC(=O)N[C@H](C(=O)N1C[C@H](O)C[C@H]1c1nc(C(=O)N(C)Cc2ccc(C(F)(F)F)cc2)c[nH]1)C(C)(C)C [Example 22, 2-[(2S,4R)-1-[(2S)-2-acetamido-3,3-dimethylbutanoyl]-4-hydroxypyrrolidin-2-yl]-N-methyl-N-[[4-(trifluoromethyl)phenyl]methyl]-1H-imidazole-4-carboxamide]
COc1ccc(Cc2cnc([C@@H]3C[C@@H](O)CN3C(=O)C(c3cc(OC)no3)C(C)C)[nH]2)cc1 (stereo partly drawn) [Example 62, 1-[(2S,4R)-4-hydroxy-2-[5-[(4-methoxyphenyl)methyl]-1H-imidazol-2-yl]pyrrolidin-1-yl]-2-(3-methoxy-1,2-oxazol-5-yl)-3-methylbutan-1-one]
COc1cc(C(C(=O)N2C[C@H](O)C[C@H]2c2ncc(Cc3ccc(C(F)(F)F)cc3)[nH]2)C(C)C)on1 (stereo partly drawn) [Example 79, 1-[(2S,4R)-4-hydroxy-2-[5-[[4-(trifluoromethyl)phenyl]methyl]-1H-imidazol-2-yl]pyrrolidin-1-yl]-2-(3-methoxy-1,2-oxazol-5-yl)-3-methylbutan-1-one]
COc1cc(C(C(=O)N2C[C@H](O)C[C@H]2c2nc(C(=O)N(Cc3ccc(-c4scnc4C)cc3)CC(F)(F)F)c[nH]2)C(C)C)on1 (stereo partly drawn) [Example 40, 2-[(2S,4R)-4-hydroxy-1-[2-(3-methoxy-1,2-oxazol-5-yl)-3-methylbutanoyl]pyrrolidin-2-yl]-N-[[4-(4-methyl-1,3-thiazol-5-yl)phenyl]methyl]-N-(22,2-trifluoroethyl)-1H-imidazole-4-carboxamide]
CC(=O)N[C@H](C(=O)N1C[C@H](O)C[C@H]1c1nc(C(=O)N(C)Cc2ccccc2Cl)c[nH]1)C(C)(C)C [Example 14, 2-[(2S,4R)-1-[(2S)-2-acetamido-3,3-dimethylbutanoyl]-4-hydroxypyrrolidin-2-yl]-N-[(2-chlorophenyl)methyl]-N-methyl-1H-imidazole-4-carboxamide]
CC(=O)N[C@H](C(=O)N1C[C@H](O)C[C@H]1c1ncc(Cc2ccc(-c3scnc3C)cc2)[nH]1)C(C)(C)C [Example 93, N-[(1S)-1-[(2S,4R)-4-hydroxy-2-[5-[[4-(4-methyl-1,3-thiazol-5-yl)phenyl]methyl]-1H-imidazol-2-yl]pyrrolidin-1-yl]-3,3-dimethyl-1-oxobutan-2-yl]acetamide]
CC(=O)N[C@H](C(=O)N1C[C@H](O)C[C@H]1c1ncc(-c2ccccc2C(F)(F)F)[nH]1)C(C)(C)C [Example 84, N-[(2S)-1-[(2S,4R)-4-hydroxy-2-[5-[2-(trifluoromethyl)phenyl]-1H-imidazol-2-yl]pyrrolidin-1-yl]-3,3-dimethyl-1-oxobutan-2-yl]acetamide]
CC(=O)N[C@H](C(=O)N1C[C@H](O)C[C@H]1c1nc(C(=O)N(C)Cc2ccc3ccccc3c2)c[nH]1)C(C)(C)C [Example 30, 2-[(2S,4R)-1-[(2S)-2-acetamido-3,3-dimethylbutanoyl]-4-hydroxypyrrolidin-2-yl]-N-methyl-N-(naphthalen-2-ylmethyl)-1H-imidazole-4-carboxamide]
COc1cc(C(C(=O)N2C[C@H](O)C[C@H]2c2nc(C(=O)N(C)CC3CCN(Cc4ccccc4F)CC3)c[nH]2)C(C)C)on1 (stereo partly drawn) [Example 155, N-[[1-[(2-fluorophenyl)methyl]-4-piperidyl]methyl]-2-[(2S,4R)-4-hydroxy-1-[2-(3-methoxyisoxazol-5-yl)-3-methylbutanoyl]pyrrolidin-2-yl]-N-methyl-1H-imidazole-4-carboxamide]
COc1cc(C(C(=O)N2C[C@H](O)C[C@H]2c2nc(C(=O)N3CCC(Oc4ccccc4)CC3)c[nH]2)C(C)C)on1 (stereo partly drawn) [Example 1, 1-[(2S,4R)-4-hydroxy-2-[4-(4-phenoxypiperidine-1-carbonyl)-1H-imidazol-2-yl]pyrrolidin-1-yl]-2-(3-methoxy-1,2-oxazol-5-yl)-3-methylbutan-1-one]
CC(=O)N[C@H](C(=O)N1C[C@H](O)C[C@H]1c1nc(C(=O)N(C)Cc2ccc(Cl)cc2)c[nH]1)C(C)(C)C [Example 16, 2-[(2S,4R)-1-[(2S)-2-acetamido-3,3-dimethylbutanoyl]-4-hydroxypyrrolidin-2-yl)-N-[(4-chlorophenyl)methyl]-N-methyl-1H-imidazole-4-carboxamide]
COc1cccc(-c2cnc([C@@H]3C[C@@H](O)CN3C(=O)C(c3cc(OC)no3)C(C)C)[nH]2)c1 (stereo partly drawn) [Example 61, 1-[(2S,4R)-4-hydroxy-2-[5-(3-methoxyphenyl)-1H-imidazol-2-yl]pyrrolidin-1-yl]-2-(3-methoxy-1,2-oxazol-5-yl)-3-methylbutan-1-one]
CC(=O)N[C@H](C(=O)N1C[C@H](O)C[C@H]1c1ncc(Cc2cccc(-c3scnc3C)c2)[nH]1)C(C)(C)C [Example 91, N-[(2S)-1-[(2S,4R)-4-hydroxy-2-[5-[[3-(4-methyl-1,3-thiazol-5-yl)phenyl]methyl]-1H-imidazol-2-yl]pyrrolidin-1-yl]-3,3-dimethyl-1-oxobutan-2-yl]acetamide]
COc1cccc(Cc2cnc([C@@H]3C[C@@H](O)CN3C(=O)C(c3cc(OC)no3)C(C)C)[nH]2)c1 (stereo partly drawn) [Example 63, 1-[(2S,4R)-4-hydroxy-2-[5-[(3-methoxyphenyl)methyl]-1H-imidazol-2-yl]pyrrolidin-1-yl]-2-(3-methoxy-1,2-oxazol-5-yl)-3-methylbutan-1-one]
CC(=O)N[C@H](C(=O)N1C[C@H](O)C[C@H]1c1nc(C(=O)N(C)Cc2cccc(C(F)(F)F)c2)c[nH]1)C(C)(C)C [Example 21, 2-[(2S,4R)-1-[(2S)-2-acetamido-3,3-dimethylbutanoyl]-4-hydroxypyrrolidin-2-yl]-N-methyl-N-[[3-(trifluoromethyl)phenyl]methyl]-1H-imidazole-4-carboxamide]
CC(=O)N[C@H](C(=O)N1C[C@H](O)C[C@H]1c1nc(C(=O)N(C)Cc2ccc(F)cc2)c[nH]1)C(C)(C)C [Example 19, 2-[(2S,4R)-1-[(2S)-2-acetamido-3,3-dimethylbutanoyl]-4-hydroxypyrrolidin-2-yl]-N-[(4-fluorophenyl)methyl]-N-methyl-1H-imidazole-4-carboxamide]
COc1ccc(-c2cnc([C@@H]3C[C@@H](O)CN3C(=O)C(c3cc(OC)no3)C(C)C)[nH]2)cc1 (stereo partly drawn) [Example 78, 1-[(2S,4R)-4-hydroxy-2-[5-(4-methoxyphenyl)-1H-imidazol-2-yl]pyrrolidin-1-yl]-2-(3-methoxy-1,2-oxazol-5-yl)-3-methylbutan-1-one]

Kd, < 1 µM:
COc1cc(C(C(=O)N2C[C@H](O)C[C@H]2c2ncc(-c3cccc(-c4scnc4C)c3)[nH]2)C(C)C)on1 (stereo partly drawn) [Example 44, 1-[(2S,4R)-4-hydroxy-2-[5-[3-(4-methyl-1,3-thiazol-5-yl)phenyl]-1H-imidazol-2-yl]pyrrolidin-1-yl]-2-(3-methoxy-1,2-oxazol-5-yl)-3-methylbutan-1-one]
COc1cc(C(C(=O)N2C[C@H](O)C[C@H]2c2nc(C(=O)N3CCC(c4ccccc4)C3)c[nH]2)C(C)C)on1 (stereo partly drawn) [Example 111, 1-[(2S,4R)-4-hydroxy-2-[4-(3-phenylpyrrolidine-1-carbonyl)-1H-imidazol-2-yl]pyrrolidin-1-yl]-2-(3-methoxyisoxazol-5-yl)-3-methylbutan-1-one]
COc1cc(C(C(=O)N2C[C@H](O)C[C@H]2c2nc(C(=O)N3CC(c4ccccc4)C3)c[nH]2)C(C)C)on1 (stereo partly drawn) [Example 108, 1-[(2S,4R)-4-hydroxy-2-[4-(3-phenylazetidine-1-carbonyl)-1H-imidazol-2-yl]pyrrolidin-1-yl]-2-(3-methoxyisoxazol-5-yl)-3-methylbutan-1-one]
COc1cc(C(C(=O)N2C[C@H](O)C[C@H]2c2nc(C(=O)N(C)CCNc3ccccc3)c[nH]2)C(C)C)on1 (stereo partly drawn) [Example 158, N-(2-anilinoethyl)-2-[(2S,4R)-4-hydroxy-1-[2-(3-methoxyisoxazol-5-yl)-3-methylbutanoyl]pyrrolidin-2-yl]-N-methyl-1H-imidazole-4-carboxamide]

Kd, 10 to 50 µM:
CCCc1nc(C(C(=O)N2C[C@H](O)C[C@H]2c2ncc[nH]2)C(C)C)no1 (stereo partly drawn) [Example 161, 1-[(2S,4R)-4-hydroxy-2-(1H-imidazol-2-yl)pyrrolidin-1-yl]-3-methyl-2-(5-propyl-1,2,4-oxadiazol-3-yl)butan-1-one]
COc1cc(C(C(=O)N2C[C@H](O)C[C@H]2c2nccn2Cc2cncc(-c3ccc(F)cc3)c2)C(C)C)on1 (stereo partly drawn) [Example 113, 1-[(2S,4R)-2-[1-[[5-(4-fluorophenyl)-3-pyridyl]methyl]imidazol-2-yl]-4-hydroxypyrrolidin-1-yl]-2-(3-methoxyisoxazol-5-yl)-3-methylbutan-1-one]
COc1cc(C(C(=O)N2C[C@H](O)C[C@H]2c2nccn2Cc2ccccc2OCc2ccccc2)C(C)C)on1 (stereo partly drawn) [Example 66, 1-[(2S,4R)-4-hydroxy-2-[1-[(2-phenylmethoxyphenyl)methyl]imidazol-2-yl]pyrrolidin-1-yl]-2-(3-methoxy-1,2-oxazol-5-yl)-3-methylbutan-1-one]
COc1cc(C(C(=O)N2C[C@H](O)C[C@H]2c2nc(C)cs2)C(C)C)on1 (stereo partly drawn) [Example 147, 1-[(2S,4R)-4-hydroxy-2-(4-methylthiazol-2-yl)pyrrolidin-1-yl]-2-(3-methoxyisoxazol-5-yl)-3-methylbutan-1-one]
